In one assay the target is MenA (Mycobacterium tuberculosis, UniProt P9WIP3). Description: In vitro assay against MenA (membrane fractions). Format: biochemical. The conditions noted are these: membrane fractions from M. tuberculosis; 5 μM farnesyl diphosphate, 50 μM dihydroxynaphthoic acid, pH 8.5; read-out: IC50 (μmol) MenA.
Assay [1] relates to M. tuberculosis H37Rv. The assay can be described thus: MIC, colorimetric microtiter plate method with Alamar blue. Format: cell-based. The conditions noted are these: Mycobacterium tuberculosis, read-out: MIC (μg/mL) M. tuberculosis. The method, then:
Activity Against M. Tuberculosis
The minimum inhibitory concentration (MIC) of compounds were determined against H37Rv by a colorimetric microtiter plate based method with Alamar blue.
For orientation: Alamar Blue is a resazurin reagent that responds to reducing activity.

The subject of the next assay is M. fortuitum NIHJ1615. The assay can be described thus: MIC, agar (7H11) dilution method. Conditions: Mycolicibacterium fortuitum, read-out: Minimum inhibitory concentrations (MIC). Format: cell-based.
The test system of the next assay is M. bovis BCG Tokyo. The assay can be described thus: microbe, parasite or virus in culture. Format: cell-based. The conditions noted are these: Mycobacterium tuberculosis variant bovis BCG, BCG, read-out: Minimum inhibitory concentrations (MIC).
The subject of a further assay is M. avium Flamingo. The assay can be described thus: MIC, agar (7H11) dilution method. The class given is cell-based. The conditions noted are these: Mycobacterium avium, read-out: Minimum inhibitory concentrations (MIC).
Assay [2] deals with M. tuberculosis H37Rv. The assay can be described thus: MIC, agar (7H11) dilution method. The class given is cell-based. Conditions: Mycobacterium tuberculosis, H37RV, M. tuberculosis H37Rv, read-out: Minimum inhibitory concentrations (MIC).
For assay [3], the system named is M. intracellularae ATCC 15984. Description: MIC, agar (7H11) dilution method. Format: cell-based. The conditions noted are these: read-out: Minimum inhibitory concentrations (MIC).
For the next assay, the system named is M. smegmatis Takeo. The assay can be described thus: MIC, agar (7H11) dilution method. The class given is cell-based. The conditions noted are these: Mycolicibacterium smegmatis, read-out: Minimum inhibitory concentrations (MIC).
The subject of the next assay is M. aurum. The assay can be described thus: MIC, agar (7H11) dilution method. The class given is cell-based. The conditions noted are these: Mycolicibacterium aurum, read-out: Minimum inhibitory concentrations (MIC).
A further assay deals with M. kansasii NIHJ1619. Description: MIC, agar (7H11) dilution method. The class given is cell-based. The conditions noted are these: Mycobacterium kansasii, read-out: Minimum inhibitory concentrations (MIC).
Another assay deals with M. tuberculosis Kurono. The assay can be described thus: MIC, agar (7H11) dilution method. The class given is cell-based. Conditions: Mycobacterium tuberculosis; M. tuberculosis Kurono; agar (7H11) dilution; read-out: Minimum inhibitory concentrations (MIC).
Where [4] appears, read: table line r8 (2nd of 5 so labelled).
Where [5] appears, read: table line r9 (3rd of 5 so labelled).
[6] abbreviates: table line r10 (4th of 5 so labelled).
The mark [7] stands for this setting: table line r11 (5th of 5 so labelled).

In brackets after ≈: the same amount, converted by molar mass.

Broadly, the IC50 is the concentration that gives 50% inhibition.

Sequence of MenA (P9WIP3 whole entry): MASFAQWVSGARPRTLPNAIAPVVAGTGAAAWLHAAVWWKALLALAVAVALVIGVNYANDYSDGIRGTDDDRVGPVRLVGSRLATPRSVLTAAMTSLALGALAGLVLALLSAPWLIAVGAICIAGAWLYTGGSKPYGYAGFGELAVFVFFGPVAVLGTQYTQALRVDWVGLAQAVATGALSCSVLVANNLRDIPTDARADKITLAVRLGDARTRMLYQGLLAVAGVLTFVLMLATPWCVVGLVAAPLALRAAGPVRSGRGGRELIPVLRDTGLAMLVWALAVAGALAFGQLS

`C=CCN(C)CCCCCCCCOc1ccc(C(=O)c2ccc(Cl)cc2)c(Cl)c1` [Cpd 9]: on MenA, the IC50 amounted to 4 µM. In addition, in the assay with M. tuberculosis H37Rv [1], the MIC was determined as 0.6 µg/mL (≈ 1.34 µM).

Turning to `C=CCN(C)CCCCCCCCOc1ccc(C(O)c2ccc(Cl)cc2)cc1` (centres unmarked) [Cpd 6, (4-(8-(allyl(methyl)amino)octyloxy)phenyl)(4-chlorophenyl)methanol], the IC50 on MenA turned out to be 10 µM. Moreover, the MIC in the assay on M. tuberculosis H37Rv [1] came out at 3 µg/mL (≈ 7.21 µM).

As for `C=CCN(C)CCCCCCCCOc1ccc(C(=O)c2ccc(Cl)cc2)cc1` [Cpd 5, (4-(8-(Allyl(methyl)amino)octyloxy)phenyl)(4-chlorophenyl)methanone], on MenA, the IC50 is 5 µM. For the same molecule, the MIC in the assay with M. tuberculosis H37Rv [1] was determined as 0.3 µg/mL (≈ 0.725 µM).

Regarding `C=CCN(C)CCCCCCCCOc1ccc(C(O)c2ccc(Cl)cc2Cl)cc1` (centres unmarked) [Cpd 8], the IC50 at MenA was found to be 12 µM. Further, in the assay on M. tuberculosis H37Rv [1], the MIC was 5 µg/mL (≈ 11.1 µM).

In the case of `NNC(=O)c1ccncc1` [INH, isoniazid, reference compound], the MIC in the assay on M. fortuitum NIHJ1615 is 6.25 µg/mL (≈ 45.6 µM); with M. bovis BCG Tokyo it was 0.1 µg/mL (≈ 0.729 µM); with M. avium Flamingo, above 25 µg/mL; in the assay on M. tuberculosis H37Rv [2] (setting [4]), 0.1 µg/mL (≈ 0.729 µM); with M. tuberculosis H37Rv [2] (setting [5]), above 25 µg/mL; in the assay on M. tuberculosis H37Rv [2] (setting [6]), 0.05 µg/mL (≈ 0.365 µM). For the same molecule, the MIC with M. tuberculosis H37Rv [2] (setting [7]) came to 0.1 µg/mL (≈ 0.729 µM); in [3], 12.5 µg/mL (≈ 91.1 µM); with M. smegmatis Takeo it was 12.5 µg/mL (≈ 91.1 µM); in the assay with M. aurum, 6.25 µg/mL (≈ 45.6 µM); with M. kansasii NIHJ1619, 12.5 µg/mL (≈ 91.1 µM); in the assay with M. tuberculosis Kurono, 0.05 µg/mL (≈ 0.365 µM).

As to `C=CCN(C)CCCCCCCCOc1ccc(C(O)c2ccc(Cl)cc2)c(Cl)c1` (centres unmarked) [Cpd 10, (4-(8-(allyl(methyl)amino)octyloxy)-2-chlorophenyl)(4-chlorophenyl)methanol], on MenA, the IC50 is below 2.5 µM. Further, in the assay with M. tuberculosis H37Rv [1], the MIC came to 0.6 µg/mL (≈ 1.33 µM).

`CN(CCCCCCCCOc1ccc(C(=O)c2ccc(Cl)cc2)c(Cl)c1)Cc1ccccc1` [Cpd 12]: the IC50 at MenA stood at 13 µM. Besides, the MIC in the assay with M. tuberculosis H37Rv [1] is 12 µg/mL (≈ 24.1 µM).

For the molecule `C=CCN(C)CCCCCCCCOc1ccc(C(O)c2ccc(Br)cc2)cc1` (centres unmarked) [Cpd 4], at MenA, the IC50 was found to be 12 µM. In the assay with M. tuberculosis H37Rv [1], the MIC came to 7 µg/mL (≈ 15.2 µM).

Take `C=CCN(C)CCCCCCCCOc1ccc(C(=O)c2ccc(Br)cc2)cc1` [Cpd 2]: at MenA, the IC50 stood at 10 µM. In the assay on M. tuberculosis H37Rv [1], the MIC was determined as 4 µg/mL (≈ 8.73 µM).

`C=CCN(C)CCCCCCCOc1ccc(C(O)c2ccc(Br)cc2)cc1` (centres unmarked) [Cpd 3]: the IC50 at MenA was 15 µM. Besides, the MIC in the assay with M. tuberculosis H37Rv [1] came to 5 µg/mL (≈ 11.2 µM).

For the molecule `C=CCN(C)CCCCCCCCOc1ccc(C(=O)c2ccc(Cl)cc2Cl)cc1` [Cpd 7, (4-(8-(Allyl(methyl)amino)octyloxy)phenyl)(2,4-dichlorophenyl)methanone], the IC50 on MenA worked out at 10 µM. In addition, the MIC with M. tuberculosis H37Rv [1] came to 4 µg/mL (≈ 8.92 µM).

Regarding `CO[C@H]1/C=C/O[C@@]2(C)Oc3c(C)c(O)c4c(O)c(c(/C=N/N5CCN(C)CC5)c(O)c4c3C2=O)NC(=O)/C(C)=C\C=C\[C@H](C)[C@H](O)[C@@H](C)[C@@H](O)[C@@H](C)[C@H](OC(C)=O)[C@@H]1C` [RFP, Rifampicin, reference compound], the MIC in the assay with M. fortuitum NIHJ1615 was above 25 µg/mL; in the assay on M. bovis BCG Tokyo it was 0.1 µg/mL (≈ 0.122 µM); in the assay on M. avium Flamingo, 3.13 µg/mL (≈ 3.8 µM); with M. tuberculosis H37Rv [2] (setting [4]), 0.1 µg/mL (≈ 0.122 µM); with M. tuberculosis H37Rv [2] (setting [5]), 0.2 µg/mL (≈ 0.243 µM); in the assay on M. tuberculosis H37Rv [2] (setting [6]), above 25 µg/mL. Also, the MIC in the assay with M. tuberculosis H37Rv [2] (setting [7]) is 0.2 µg/mL (≈ 0.243 µM); in assay [3], 3.13 µg/mL (≈ 3.8 µM); in the assay with M. smegmatis Takeo it was above 25 µg/mL; with M. aurum, 0.78 µg/mL (≈ 0.948 µM); with M. kansasii NIHJ1619 it was 3.13 µg/mL (≈ 3.8 µM); with M. tuberculosis Kurono, 0.1 µg/mL (≈ 0.122 µM).

Consider `C#CCN(C)CCCCCCCCOc1ccc(C(=O)c2ccc(Cl)cc2)c(Cl)c1` [Cpd 11, (2-Chloro-4-(8-(methyl(prop-2-ynyl)amino)octyloxy)phenyl)(4-chlorophenyl)methanone], for which, at MenA, the IC50 was 15 µM. The MIC with M. tuberculosis H37Rv [1] is 12 µg/mL (≈ 26.9 µM).

For the molecule `C=CCN(C)CCCCCCCOc1ccc(C(=O)c2ccc(Br)cc2)cc1` [Cpd 1, (4-(7-(allyl(methyl)amino)heptyloxy)phenyl)(4-bromophenyl)methanone], the IC50 on MenA came out at 12 µM. The MIC in the assay on M. tuberculosis H37Rv [1] worked out at 5 µg/mL (≈ 11.3 µM).

Consider `C=CCN(C)CCCCCCCCOc1ccc(C(=O)c2ccc(Cl)cc2)c(O)c1` [Cpd 13, (4-(8-(allyl(methyl)amino)octyloxy)-2-hydroxyphenyl)(4-chlorophenyl)methanone], for which the IC50 on MenA is below 2.5 µM. In the assay on M. tuberculosis H37Rv [1], the MIC is 0.2 µg/mL (≈ 0.465 µM).

The values are drawn from US8884061B2, “Compositions and methods of use of electron transport system inhibitors” (priority 2006, dated 2014).
